From patent US11401306B2, “HPV16 non HLA-restricted t-cell vaccines, compositions and methods of use thereof” (priority 2016, dated 2022) come the findings set out here.

No end group written: not given here.

Assay [1] concerns HPV-specific T-cell response (splenocytes). Put plainly: IFN-g ELISPOT on splenocytes of vaccinated humanized HLA-A2 transgenic mice. The conditions noted are these: for Immune Response, Method: ELISPOT: HLA-A2 humanized transgenic mice, IFN-gamma ELISPOT. In kind it is in vivo. The source says: (§1) Sequence selection was accomplished herein using both tumor regression studies in C57/B6 mice, and interferon-gamma ELISPOT studies in HLA-A2 humanized transgenic mice. […] In the HLA-A2 mouse model ELISPOT study, at least 20 spots per million splenocytes was regarded to be a positive response.
This example highlights the approach to evaluating T-cell responses using ELISPOT studies in humanized HLA-A2 transgenic mice. In these studies, the vaccine contained the selected peptide at a concentration of 0.1-3.0 mg/mL and cationic liposomes when used, at a concentration of 0.2-3.0 mg/mL. Humanized HLA-A2 transgenic mice having components of the human immune system capable of recognizing human antigens were vaccinated on day 0 and day 7 with 100 uL of the vaccine. On day 14 the mice were sacrificed and HPV-specific immune response evaluated by interferon-gamma ELISPOT using standard approaches with the splecocytes from the mice (4-8 per group). The splenocytes were stimulated with the specified CD8+ T-cell epitope peptides or the long multi-epitope peptides specified in Table 2. The number of IFN-g spots per million cells is listed for the specified examples. […] The ability of the humanized transgenic mice to successfully generate a T-cell immune response (>20 spots) when stimulated with each of the long multi-epitope peptides as well as short single epitope peptides confirms that the selected peptides are effectively processed and presented to T-cells. In these studies, un-stimulated splenocytes and splenocytes stimulated with irrelevant peptides were both used together as negative controls in every assay. For the positive control in the assay ConA was used.
The present study was performed to evaluate the effect of chemical modification of select peptides on immunogenicity and their ability to be processed, presented and to prime human CD8+ HPV-specific T-cell responses. Peptides corresponding to SEQ ID NO: 23 and 25 contain cysteines which upon oxidation lead to the formation of dimers and other multimers. Two vaccine formulations were prepared containing peptides corresponding to SEQ ID NO: 23 and 25.
In Formulation A: Both peptides were monomeric with high purity confirmed by HPLC analysis. The vaccine contained 1.5-1.6 mg/mL of each peptide.
In Formulation B: Significant oxidation and multimer formation of both peptides was confirmed by HPLC analysis.
Both formulations were mixed 1:1 with 5.8 mg/mL of R-DOTAP prior to vaccination.
The immunogenicity of the peptides was compared as described in the above examples in 10 HLA-A2 mice per formulation by evaluating the ability to induce CD8+ T-cells. ELISPOT studies were performed as described above.

The next assay has as its system TC-1 tumor. Put plainly: TC-1 tumor regression screening of peptides in C57/B6 mice. In kind it is in vivo. Also noted: key: Positive: a positive T-cell response was a T-cell response that resulted in regression of the tumor. The conditions noted are these: TC-1 tumors in C57/B6 mice, vaccinated day 7, peptide alone or with cationic lipid.
Source text: as §1
This example illustrates the evaluation or screening of several HPV16 E7 peptides in the TC-1 mouse tumor regression model for their effective processing and presentation of the key epitopes leading to HPV-specific T-cell induction and subsequent tumor regression.
In the tumor regression screening studies mice were implanted with 100,000 TC-1 cells on day 0. On day 7, once the tumors were well established the mice were vaccinated with the specific peptide sequences, either formulated alone or in combination with cationic lipids such as DOTMA, DOEPC or R-DOTAP to facilitate up-take and presentation. In these studies, the vaccine contained the selected peptide at a concentration of 0.1-3.0 mg/mL and cationic liposomes at a concentration of 0.2-3.0 mg/mL. In the cases where the peptide sequences were lipidated by attaching a palmitoyl chain, the peptides were simply mixed with the cationic liposomes prior to vaccination. In the case of the non-lipidated peptides, the liposomes were made and peptides encapsulated by traditional thin film liposome preparation methods (F Szoka, and D Papahadjopoulos, Comparative Properties and Methods of Preparation of Lipid Vesicles (Liposomes), Annual Review of Biophysics and Bioengineering, Vol. 9:467-508, 1980). Other methods well known to those skilled in the art may also have been used.
A sample tumor regression plot showing results for peptides corresponding to SEQ ID NO: 1 (blank square), SEQ ID NOS: 7, 8, 31 32 and 31 (solid black circle), SEQ ID NO: 7 (blank circle), and SEQ ID NO: 8 (solid black triangle) is shown in FIG. 3.

The mark [2] stands for this setting: splenocytes stimulated with YMLDLQPETT (SEQ ID NO: 14).
The mark [3] stands for this setting: splenocytes stimulated with LLMGTLGIV (SEQ ID NO: 15).
Where [4] appears, read: splenocytes stimulated with TLGIVCPIC (SEQ ID NO: 22).
The mark [5] stands for this setting: splenocytes stimulated with TIHDIILECV (SEQ ID NO: 21).

On to MHGDTPTLHEYMLDLQPETT [SEQ ID NO: 9], for which, in assay [1], the “Immune Response, Method: ELISPOT” value is recorded as “Positive, EISPOT (at least 20 spots per million splenocytes was regarded to be a positive response)”. For the same compound, the “ELISPOT result Av spots/10^6 cells” value in assay [1] (setting [2]) was 235 spots/10^6 cells.
Regarding “PAGQAEPDRAHYNIVTFC [SEQ ID NO: 7, HPV16 E7 41-58 peptide]”, in the assay on TC-1 tumor, the “Immune Response, Method: tumor regression” value is “Positive, tumor regression”.
For the compound PalmKSS LLMGTLGIV [SEQ ID NO: 28], the “Immune Response, Method: ELISPOT” value in assay [1] was “Positive, ELISPOT (at least 20 spots per million splenocytes was regarded to be a positive response)”. Besides, the “ELISPOT result Av spots/10^6 cells” value in assay [1] (setting [3]) is 96 spots/10^6 cells.
With “EPDRAHYNIVTFCCKCDS [SEQ ID NO: 8, HPV16 E7 46-63 peptide]”, in the assay with TC-1 tumor, the “Immune Response, Method: tumor regression” value was “Negative, tumor regression”.
For “LLMGTLGIVCPICSQKP [SEQ ID NO: 10, HPV16 E7 82-98 peptide]”, the “Immune Response, Method: ELISPOT” value in assay [1] is listed as “Positive, ELISPOT (at least 20 spots per million splenocytes was regarded to be a positive response)”. The results for the “ELISPOT result Av spots/10^6 cells” value in assay [1] (setting [3]) and in assay [1] (setting [4]) were 1 spots/10^6 cells and 27 spots/10^6 cells, respectively.
For the compound “ELQTTIHDIILECVYCKQQLL [SEQ ID NO: 11, HPV16 E6 25-45 peptide]”, in assay [1], the “Immune Response, Method: ELISPOT” value was “Positive, ELISPOT (at least 20 spots per million splenocytes was regarded to be a positive response)”. Further, the “ELISPOT result Av spots/10^6 cells” value in assay [1] (setting [5]) stood at 262 spots/10^6 cells.
As for PalmKSS YMLDLQPETT [SEQ ID NO: 27], the “Immune Response, Method: ELISPOT” value in assay [1] is recorded as “Positive, ELISPOT (at least 20 spots per million splenocytes was regarded to be a positive response)”. For the same compound, in assay [1] (setting [2]), the “ELISPOT result Av spots/10^6 cells” value is on record as 280 spots/10^6 cells.
Take “GQAEPDRAHYNIVTF [SEQ ID NO: 5, HPV16 E7 43-57 peptide]”: the “Immune Response, Method: tumor regression” value in the assay on TC-1 tumor is recorded as “Positive, tumor regression”.
Consider “QQLLRREVYDFAFRDLCIVYR [SEQ ID NO: 13, printed as E7 42-62 peptide]”, for which the “Immune Response, Method: ELISPOT” value in assay [1] is listed as “Negative, ELISPOT”. For the same compound, the “ELISPOT result Av spots/10^6 cells” value in assay [1] (splenocytes stimulated with FAFRDLCIV (SEQ ID NO: 29)) is 6 spots/10^6 cells.
On to RAHYNIVTF [SEQ ID NO: 1], for which the “Immune Response, Method: tumor regression” value with TC-1 tumor is listed as “Positive, tumor regression”.
Same read-out and setting: with “CDSTLRLCVQ STHVDIRT (CDSTLRLCVQSTHVDIRT) [SEQ ID NO: 32, E7 61-78 peptide]” the entry was “Positive, tumor”; with “KSS GQAEPDRAHYNIVTF (KSSGQAEPDRAHYNIVTF) [SEQ ID NO: 6, HPV16 E7 43-57 peptide with KSS]”, “Negative, tumor regression”.
With “PalmKSS LLMGTLGIVCPICSQKP [SEQ ID NO: 25]”, the “ELISPOT result Av spots/10^6 cells” value was determined as 52 spots/10^6 cells in assay [1] (Formulation A (monomeric peptides SEQ ID NO: 23 and 25, with R-DOTAP), stimulated with LLMGTLGIV (SEQ ID NO: 15)); 48 spots/10^6 cells in assay [1] (Formulation B (oxidized, multimer peptides SEQ ID NO: 23 and 25, with R-DOTAP), stimulated with LLMGTLGIV (SEQ ID NO: 15)); 5 spots/10^6 cells in assay [1] (setting [3]); 92 spots/10^6 cells in assay [1] (splenocytes stimulated with LLMGTLGIVCPICSQKP (SEQ ID NO: 10)); 31 spots/10^6 cells in assay [1] (setting [4]). Besides, in assay [1], the “Immune Response, Method: ELISPOT” value is “Positive, ELISPOT (at least 20 spots per million splenocytes was regarded to be a positive response)”.
On to PalmKSS RAHYNIVTF [SEQ ID NO: 3], for which the “Immune Response, Method: tumor regression” value in the assay on TC-1 tumor is on record as “Positive, tumor regression”.
For the compound “PalmKSS ELQTTIHDIILECVYCKQQLL [SEQ ID NO: 23]”, the “ELISPOT result Av spots/10^6 cells” value in assay [1] (Formulation A (monomeric peptides SEQ ID NO: 23 and 25, with R-DOTAP), stimulated with TIHDIILECV (SEQ ID NO: 21)) came out at 314 spots/10^6 cells; in assay [1] (Formulation B (oxidized, multimer peptides SEQ ID NO: 23 and 25, with R-DOTAP), stimulated with TIHDIILECV (SEQ ID NO: 21)), 158 spots/10^6 cells; in assay [1] (splenocytes stimulated with ELQTTIHDIILECVYCKQQLL (SEQID NO: 13)), 8 spots/10^6 cells; in assay [1] (setting [5]) it was 612 spots/10^6 cells. Also, in assay [1], the “Immune Response, Method: ELISPOT” value is on record as “Positive, ELISPOT (at least 20 spots per million splenocytes was regarded to be a positive response)”.
As for “DRAHYNIVTF [SEQ ID NO: 2, HPV16 E7 48-57 peptide]”, the “Immune Response, Method: tumor regression” value in the assay on TC-1 tumor is listed as “Negative, tumor regression”.
Consider `CSCC[C@H](NC(=O)[C@@H](N)Cc1ccc(O)cc1)C(=O)N[C@@H](CC(C)C)C(=O)N[C@@H](CC(=O)O)C(=O)N[C@@H](CC(C)C)C(=O)N[C@@H](CCC(N)=O)C(=O)N1CCC[C@H]1C(=O)N[C@@H](CCC(=O)O)C(=O)N[C@H](C(=O)N[C@H](C(=O)O)[C@@H](C)O)[C@@H](C)O` [SEQ ID NO: 14], for which, in assay [1], the “Immune Response, Method: ELISPOT” value was “Positive, ELISPOT (at least 20 spots per million splenocytes was regarded to be a positive response)”. In assay [1] (setting [2]), the “ELISPOT result Av spots/10^6 cells” value stood at 580 spots/10^6 cells.
Take “PalmKSS MHGDTPTLHEYMLDLQPETT [SEQ ID NO: 24]”: the “Immune Response, Method: ELISPOT” value in assay [1] is “Positive, ELISPOT (at least 20 spots per million splenocytes was regarded to be a positive response)”. Further, the “ELISPOT result Av spots/10^6 cells” value in assay [1] (splenocytes stimulated with MHGDTPTLHEYMLDLQPETT (SEQ ID NO: 9)) came out at 284 spots/10^6 cells; in assay [1] (setting [2]) it was 79 spots/10^6 cells.
Take “TIHDIILECV [SEQ ID NO: 21, printed as E7 29-38 peptide]”: the “Immune Response, Method: ELISPOT” value in assay [1] is recorded as “Positive, ELISPOT (at least 20 spots per million splenocytes was regarded to be a positive response)”.
Consider “KFYSKISEYRHCYYSLYGTTL [SEQ ID NO: 12, printed as E7 75-95 peptide]”, for which, in assay [1], the “Immune Response, Method: ELISPOT” value is on record as “Negative, ELISPOT”. Besides, the “ELISPOT result Av spots/10^6 cells” value in assay [1] (splenocytes stimulated with KISEYRHCY (SEQ ID NO: 30)) was 15 spots/10^6 cells.
`CC[C@H](C)[C@H](NC(=O)CNC(=O)[C@H](CC(C)C)NC(=O)[C@@H](N)[C@@H](C)O)C(=O)N[C@H](C(=O)N[C@@H](CS)C(=O)N1CCC[C@H]1C(=O)N[C@H](C(=O)N[C@@H](CS)C(=O)O)[C@@H](C)CC)C(C)C` [SEQ ID NO: 22]: the “Immune Response, Method: ELISPOT” value in assay [1] is “Positive, ELISPOT (at least 20 spots per million splenocytes was regarded to be a positive response)”.
For the compound “KSS RAHYNIVTF (KSSRAHYNIVTF) [SEQ ID NO: 4, HPV16 E7 49-57 peptide with KSS]”, the “Immune Response, Method: tumor regression” value in the assay with TC-1 tumor is given as “Positive, tumor regression”.
Turning to `CC[C@H](C)[C@H](NC(=O)CNC(=O)[C@H](CC(C)C)NC(=O)[C@@H](NC(=O)CNC(=O)[C@H](CCSC)NC(=O)[C@H](CC(C)C)NC(=O)[C@@H](N)CC(C)C)[C@@H](C)O)C(=O)N[C@H](C(=O)O)C(C)C` [SEQ ID NO: 15], in assay [1], the “Immune Response, Method: ELISPOT” value is given as “Positive, ELISPOT (at least 20 spots per million splenocytes was regarded to be a positive response)”.
